The text below walks through data of patent US20230085307A1, “PYRIDAZINONE COMPOUND AND HERBICIDE” (NISSAN CHEMICAL CORPORATION, priority 2019, published 2023).

In the first assay the test system is wild oat. Kind of assay: Test Example 4: herbicidal effect by soil treatment (Table 19, symbol I). Conditions: amount of applied herbicide 320 g/ha. The format is in vivo, wild oat (Avena fatua). The method, boiled down:
(§1)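 Applied as a water-diluted emulsion, the compound was sprayed onto soil covering newly sown seeds. Evaluation came three weeks after application, in a greenhouse held at 25° C. to 30° C.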
On to `CCCC(=O)Oc1c(C)nn(C)c(=O)c1-c1c(-c2ccccc2)sc2ccc(F)cc12` [2-198], for which the “I: wild oat, herbicidal effect rating” value is 4 (Herbicidal rate of 70% or more and less than 90%).
Same read-out and setting: as for `Cc1nn(C)c(=O)c(-c2c(-c3ccccc3F)sc3ccc(F)cc23)c1O` [2-199], the figure is 0 (Herbicidal rate of 5% or less (almost no effect)).
On the same count and under the same terms, as for `CCCC(=O)Oc1c(C)nn(C)c(=O)c1-c1c(-c2ccc(Br)cc2)sc2ccc(F)cc12` [2-206], the figure is 0 (Herbicidal rate of 5% or less (almost no effect)).

The next assay has as its system green foxtail. As to the kind of experiment: Test Example 4: herbicidal effect by soil treatment (Table 19, symbol G). The format is in vivo, green foxtail (Setaria viridis). Conditions: amount of applied herbicide 320 g/ha. The method, boiled down:
as §1
Regarding `CCCC(=O)Oc1c(C)nn(C)c(=O)c1-c1c(-c2ccccc2)sc2ccc(F)cc12` [2-198], the “G: green foxtail, herbicidal effect rating” value was 5 (Herbicidal rate of 90% or more (almost completely withered)).
Same read-out and setting: the result for `Cc1nn(C)c(=O)c(-c2c(-c3ccccc3F)sc3ccc(F)cc23)c1O` [2-199] reads 4 (Herbicidal rate of 70% or more and less than 90%); that for `CCCC(=O)Oc1c(C)nn(C)c(=O)c1-c1c(-c2ccc(Br)cc2)sc2ccc(F)cc12` [2-206], 3 (Herbicidal rate of 40% or more and less than 70%).

In a further assay the test system is Italian ryegrass. Kind of assay: Test Example 5: herbicidal effect by foliage application, plastic box (Table 20, symbol K). The format is in vivo, Italian ryegrass (Lolium multiflorum). Conditions: foliage application, 320 g/ha, evaluated three weeks after application. In short, it runs like this:
(§2)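 Sow seeds spot-wise in sterilized diluvial soil; cover with ~1.5 cm soil. Grow 14 days in greenhouse, 25° C. to 30° C. Spray foliage with emulsion diluted to predetermined amount. Rate effect after 3 weeks.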
`CCCC(=O)Oc1c(C)nn(C)c(=O)c1-c1c(-c2ccccc2)sc2ccc(F)cc12` [2-198]: the “herbicidal effect on K: Italian ryegrass (criteria 0-5)” value is 5 (Herbicidal rate of 90% or more (almost completely withered)).
The same measure, in the same setting: as for `Cc1nn(C)c(=O)c(-c2c(-c3ccccc3F)sc3ccc(F)cc23)c1O` [2-199], the figure is 4 (Herbicidal rate of 70% or more and less than 90%).
On the same count and under the same terms, as for `CCCC(=O)Oc1c(C)nn(C)c(=O)c1-c1c(-c2ccc(Br)cc2)sc2ccc(F)cc12` [2-206], the figure is 5 (Herbicidal rate of 90% or more (almost completely withered)).

In a further assay the test system is persian speedwell. Kind of assay: Test Example 5: herbicidal effect by foliage application, plastic box (Table 20, symbol R). The settings on record: foliage application, 320 g/ha, evaluated three weeks after application. Type of assay: in vivo, Persian speedwell (Veronica persica). In short, it runs like this: as §2
Consider `CCCC(=O)Oc1c(C)nn(C)c(=O)c1-c1c(-c2ccccc2)sc2ccc(F)cc12` [2-198], for which the “herbicidal effect on R: persian speedwell (criteria 0-5)” value (from here on “herbicidal effect on R”) is recorded as 5 (Herbicidal rate of 90% or more (almost completely withered)).
Turning to `Cc1nn(C)c(=O)c(-c2c(-c3ccccc3F)sc3ccc(F)cc23)c1O` [2-199], the “herbicidal effect on R” value is given as 5 (Herbicidal rate of 90% or more (almost completely withered)).
With `CCCC(=O)Oc1c(C)nn(C)c(=O)c1-c1c(-c2ccc(Br)cc2)sc2ccc(F)cc12` [2-206], the “herbicidal effect on R” value is on record as 5 (Herbicidal rate of 90% or more (almost completely withered)).

For the next assay, the system named is Japanese bulrush. As to the kind of experiment: Test Example 2: herbicidal activity, application during weed generation under submerged conditions (Table 17, symbol B). The format is in vivo, Japanese bulrush (Schoenoplectus juncoides). The settings on record: AAH 320 g/ha; application during weed generation, submerged conditions. The method, boiled down:
(§3)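 Herbicide emulsion, diluted with water to the chosen amount, is applied onto 4 cm floodwater over alluvial soil where the weeds were co-sown and raised at 25–30° C. Application timing: 1–2 leaves. Assessment: three weeks afterwards.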
As to `CCCC(=O)Oc1c(C)nn(C)c(=O)c1-c1c(-c2ccccc2)sc2ccc(F)cc12` [2-198], the “herbicidal effect rating, B: Japanese bulrush” value was 3 (Herbicidal rate of 40% or more and less than 70%).
Turning to `Cc1nn(C)c(=O)c(-c2c(-c3ccccc3F)sc3ccc(F)cc23)c1O` [2-199], the “herbicidal effect rating, B: Japanese bulrush” value was 2 (Herbicidal rate of 20% or more and less than 40%).
The same measure, in the same setting: as for `CCCC(=O)Oc1c(C)nn(C)c(=O)c1-c1c(-c2ccc(Br)cc2)sc2ccc(F)cc12` [2-206], the figure is 3 (Herbicidal rate of 40% or more and less than 70%).

The next assay concerns blackgrass. As to the kind of experiment: Test Example 4: herbicidal effect by soil treatment (Table 19, symbol J). Type of assay: in vivo, blackgrass (Alopecurus myosuroides). Conditions: amount of applied herbicide 320 g/ha. The method, boiled down:
as §1
`CCCC(=O)Oc1c(C)nn(C)c(=O)c1-c1c(-c2ccccc2)sc2ccc(F)cc12` [2-198]: the “J: blackgrass, herbicidal effect rating” value is 4 (Herbicidal rate of 70% or more and less than 90%).
Still for that read-out and setting: the result for `Cc1nn(C)c(=O)c(-c2c(-c3ccccc3F)sc3ccc(F)cc23)c1O` [2-199] reads 0 (Herbicidal rate of 5% or less (almost no effect)).
In the case of `CCCC(=O)Oc1c(C)nn(C)c(=O)c1-c1c(-c2ccc(Br)cc2)sc2ccc(F)cc12` [2-206], the “J: blackgrass, herbicidal effect rating” value is 0 (Herbicidal rate of 5% or less (almost no effect)).

The subject of another assay is oval-leafed pondweed. As to the kind of experiment: Test Example 2: herbicidal activity, application during weed generation under submerged conditions (Table 17, symbol C). Type of assay: in vivo, oval-leafed pondweed (Monochoria vaginalis). Conditions: AAH 320 g/ha; application during weed generation, submerged conditions. The method, boiled down:
as §3
As to `CCCC(=O)Oc1c(C)nn(C)c(=O)c1-c1c(-c2ccccc2)sc2ccc(F)cc12` [2-198], the “herbicidal effect rating, C: oval-leafed pondweed” value is 4 (Herbicidal rate of 70% or more and less than 90%).
On the same count and under the same terms, the result for `Cc1nn(C)c(=O)c(-c2c(-c3ccccc3F)sc3ccc(F)cc23)c1O` [2-199] reads 0 (Herbicidal rate of 5% or less (almost no effect)); that for `CCCC(=O)Oc1c(C)nn(C)c(=O)c1-c1c(-c2ccc(Br)cc2)sc2ccc(F)cc12` [2-206], 4 (Herbicidal rate of 70% or more and less than 90%).

A further assay deals with late watergrass. Kind of assay: Test Example 2: herbicidal activity, application during weed generation under submerged conditions (Table 17, symbol A). Type of assay: in vivo, late watergrass (Echinochloa oryzicola). The settings on record: AAH 320 g/ha; application during weed generation, submerged conditions. The method, boiled down: as §3
`CCCC(=O)Oc1c(C)nn(C)c(=O)c1-c1c(-c2ccccc2)sc2ccc(F)cc12` [2-198]: the “herbicidal effect rating, A: late watergrass” value was 2 (Herbicidal rate of 20% or more and less than 40%).
Same read-out and setting: the result for `Cc1nn(C)c(=O)c(-c2c(-c3ccccc3F)sc3ccc(F)cc23)c1O` [2-199] reads 0 (Herbicidal rate of 5% or less (almost no effect)); that for `CCCC(=O)Oc1c(C)nn(C)c(=O)c1-c1c(-c2ccc(Br)cc2)sc2ccc(F)cc12` [2-206], 4 (Herbicidal rate of 70% or more and less than 90%).

The test system of a further assay is lambsquarters. As to the kind of experiment: Test Example 5: herbicidal effect by foliage application, plastic box (Table 20, symbol O). Type of assay: in vivo, lambsquarters (Chenopodium album). The settings on record: foliage application, 320 g/ha, evaluated three weeks after application. The method, boiled down: as §2
Turning to `CCCC(=O)Oc1c(C)nn(C)c(=O)c1-c1c(-c2ccccc2)sc2ccc(F)cc12` [2-198], the “herbicidal effect on O: lambsquarters (criteria 0-5)” value (shortened to “herbicidal effect on O”) is recorded as 5 (Herbicidal rate of 90% or more (almost completely withered)).
As to `Cc1nn(C)c(=O)c(-c2c(-c3ccccc3F)sc3ccc(F)cc23)c1O` [2-199], the “herbicidal effect on O” value is given as 5 (Herbicidal rate of 90% or more (almost completely withered)).
On to `CCCC(=O)Oc1c(C)nn(C)c(=O)c1-c1c(-c2ccc(Br)cc2)sc2ccc(F)cc12` [2-206], for which the “herbicidal effect on O” value is given as 5 (Herbicidal rate of 90% or more (almost completely withered)).

Another assay has as its system velvetleaf. As to the kind of experiment: Test Example 4: herbicidal effect by soil treatment (Table 19, symbol M). Type of assay: in vivo, velvetleaf (Abutilon theophrasti). Conditions: amount of applied herbicide 320 g/ha. In short, it runs like this:
as §1
Turning to `CCCC(=O)Oc1c(C)nn(C)c(=O)c1-c1c(-c2ccccc2)sc2ccc(F)cc12` [2-198], the “M: velvetleaf, herbicidal effect rating” value was 3 (Herbicidal rate of 40% or more and less than 70%).
Still for that read-out and setting: the result for `Cc1nn(C)c(=O)c(-c2c(-c3ccccc3F)sc3ccc(F)cc23)c1O` [2-199] reads 1 (Herbicidal rate of 5% or more and less than 20%); that for `CCCC(=O)Oc1c(C)nn(C)c(=O)c1-c1c(-c2ccc(Br)cc2)sc2ccc(F)cc12` [2-206], 2 (Herbicidal rate of 20% or more and less than 40%).

A further assay deals with barnyard grass. Kind of assay: Test Example 4: herbicidal effect by soil treatment (Table 19, symbol H). The format is in vivo, barnyard grass (Echinochloa crus-galli). Conditions: amount of applied herbicide 320 g/ha. The method, boiled down:
as §1
In the case of `CCCC(=O)Oc1c(C)nn(C)c(=O)c1-c1c(-c2ccccc2)sc2ccc(F)cc12` [2-198], the “H: barnyard grass, herbicidal effect rating” value was 4 (Herbicidal rate of 70% or more and less than 90%).
The same measure, in the same setting: the result for `Cc1nn(C)c(=O)c(-c2c(-c3ccccc3F)sc3ccc(F)cc23)c1O` [2-199] reads 4 (Herbicidal rate of 70% or more and less than 90%); that for `CCCC(=O)Oc1c(C)nn(C)c(=O)c1-c1c(-c2ccc(Br)cc2)sc2ccc(F)cc12` [2-206], 2 (Herbicidal rate of 20% or more and less than 40%).

The next assay concerns redroot pigweed. Kind of assay: Test Example 4: herbicidal effect by soil treatment (Table 19, symbol N). Type of assay: in vivo, redroot pigweed (Amaranthus retroflexus). The settings on record: amount of applied herbicide 320 g/ha. The method, boiled down: as §1
As for `CCCC(=O)Oc1c(C)nn(C)c(=O)c1-c1c(-c2ccccc2)sc2ccc(F)cc12` [2-198], the “N: redroot pigweed, herbicidal effect rating” value (“N: redroot pigweed” below) is on record as 5 (Herbicidal rate of 90% or more (almost completely withered)).
With `Cc1nn(C)c(=O)c(-c2c(-c3ccccc3F)sc3ccc(F)cc23)c1O` [2-199], the “N: redroot pigweed” value was 4 (Herbicidal rate of 70% or more and less than 90%).
Turning to `CCCC(=O)Oc1c(C)nn(C)c(=O)c1-c1c(-c2ccc(Br)cc2)sc2ccc(F)cc12` [2-206], the “N: redroot pigweed” value is 5 (Herbicidal rate of 90% or more (almost completely withered)).

For another assay, the system named is green foxtail. As to the kind of experiment: Test Example 5: herbicidal effect by foliage application, plastic box (Table 20, symbol G). The format is in vivo, green foxtail (Setaria viridis). Conditions: foliage application, 320 g/ha, evaluated three weeks after application. The method, boiled down:
as §2
In the case of `CCCC(=O)Oc1c(C)nn(C)c(=O)c1-c1c(-c2ccccc2)sc2ccc(F)cc12` [2-198], the “herbicidal effect on G: green foxtail (criteria 0-5)” value was 4 (Herbicidal rate of 70% or more and less than 90%).
With `Cc1nn(C)c(=O)c(-c2c(-c3ccccc3F)sc3ccc(F)cc23)c1O` [2-199], the “herbicidal effect on G: green foxtail (criteria 0-5)” value is listed as 5 (Herbicidal rate of 90% or more (almost completely withered)).
The same measure, in the same setting: as for `CCCC(=O)Oc1c(C)nn(C)c(=O)c1-c1c(-c2ccc(Br)cc2)sc2ccc(F)cc12` [2-206], the figure is 3 (Herbicidal rate of 40% or more and less than 70%).

The subject of another assay is southern crabgrass. Kind of assay: Test Example 4: herbicidal effect by soil treatment (Table 19, symbol F). Type of assay: in vivo, southern crabgrass (Digitaria ciliaris). The settings on record: amount of applied herbicide 320 g/ha. The method, boiled down:
as §1
Regarding `CCCC(=O)Oc1c(C)nn(C)c(=O)c1-c1c(-c2ccccc2)sc2ccc(F)cc12` [2-198], the “F: southern crabgrass, herbicidal effect rating” value (from here on “F: southern crabgrass”) was 5 (Herbicidal rate of 90% or more (almost completely withered)).
As for `Cc1nn(C)c(=O)c(-c2c(-c3ccccc3F)sc3ccc(F)cc23)c1O` [2-199], the “F: southern crabgrass” value is 2 (Herbicidal rate of 20% or more and less than 40%).
Regarding `CCCC(=O)Oc1c(C)nn(C)c(=O)c1-c1c(-c2ccc(Br)cc2)sc2ccc(F)cc12` [2-206], the “F: southern crabgrass” value was 1 (Herbicidal rate of 5% or more and less than 20%).
